Experiment [1] deals with T1, Axl (Homo sapiens, UniProt P30530).
T1 sequence (P30530 26-894): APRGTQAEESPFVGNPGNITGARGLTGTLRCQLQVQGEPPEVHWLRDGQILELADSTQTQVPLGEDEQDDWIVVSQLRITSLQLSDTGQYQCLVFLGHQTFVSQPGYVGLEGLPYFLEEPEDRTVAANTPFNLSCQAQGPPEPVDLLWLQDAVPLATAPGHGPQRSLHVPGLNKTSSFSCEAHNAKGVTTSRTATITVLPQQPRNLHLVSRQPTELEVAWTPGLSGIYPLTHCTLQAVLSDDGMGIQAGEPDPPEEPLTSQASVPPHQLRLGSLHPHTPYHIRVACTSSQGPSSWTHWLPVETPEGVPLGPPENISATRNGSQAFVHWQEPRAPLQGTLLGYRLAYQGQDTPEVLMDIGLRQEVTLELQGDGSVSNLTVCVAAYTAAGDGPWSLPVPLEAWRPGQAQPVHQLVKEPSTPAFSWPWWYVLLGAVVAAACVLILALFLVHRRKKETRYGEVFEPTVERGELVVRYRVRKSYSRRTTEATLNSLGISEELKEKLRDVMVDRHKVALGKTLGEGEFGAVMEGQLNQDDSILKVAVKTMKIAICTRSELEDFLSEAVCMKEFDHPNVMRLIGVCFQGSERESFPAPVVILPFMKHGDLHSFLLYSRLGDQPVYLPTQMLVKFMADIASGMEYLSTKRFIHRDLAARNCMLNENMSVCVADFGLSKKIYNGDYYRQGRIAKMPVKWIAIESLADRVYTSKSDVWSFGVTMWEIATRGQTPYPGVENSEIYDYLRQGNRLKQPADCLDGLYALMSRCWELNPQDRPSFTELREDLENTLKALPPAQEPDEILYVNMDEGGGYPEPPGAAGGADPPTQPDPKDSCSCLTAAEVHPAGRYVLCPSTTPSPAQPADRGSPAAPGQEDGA
Kind of experiment: Axl NanoBRET intracellular kinase assay (intracellular binding, K-5 tracer displacement). The arrangement: host or cells: HEK-293. Particulars: HEK-293 cells transfected with Axl-NanoLuc, 0.35 μM K-5 NanoBRET tracer; read-out: Cell Binding AXL. The method, then: Measuring Intracellular Binding of Axl Inhibitors
Axl NanoBRET™ intracellular kinase assay (Promega, N2540) was performed according to manufacturer's recommendation. In brief, HEK-293 cells are transiently transfected with Ax1-NanoLuc fusion vector (Promega, NV1071), utilizing Fugene HD transfection reagent (Promega, E2311) a day before experiment following manufacturer's recommendation.
The day of the assay, the cells were collected and resuspended in Opti-MEM media (ThermoFisher, 31985070) at 2e5 cells/mL concentration. Testing compounds were serial diluted and dispensed into a white 384 well polystyrene plate at 200 nL in 100% DMSO. 40 μL of resuspended cells is then added per well for a final condition of 8K cells/well with 0.5% DMSO. After one-hour compound pre-incubation at 37° C. and 5% CO2, cells were further incubated with 0.35 μM K-5 NanoBRET tracer for two-hours at 37° C. and 5% CO2. […] of 3× substrate plus Inhibitor solution was prepared according to kits manual and added to the cells followed by a 30 second pulse centrifugation spin. The plate was then immediately read utilizing an Envision (Perkin Elmer) plate reader. The BRET signal is measured by taking the ratio of the emissions reading at 610 nm and 450 nm. Compound binding is based on the decrease BRET signal caused by the displacement of the K-5 tracer. […] ICso value of compounds was determined by 4-parameter non-linear regression fitting of percent activity in GraphPad Prism software.
(BRET reads energy transfer from a luciferase to a nearby fluorophore.)

Experiment [2] has as its target T1, Axl. Kind of experiment: Biochemical potency, HTRF KinEASE-TK kinase assay. The arrangement: purchased Invitrogen. Particulars: 5 nM AXL, 700 μM ATP. The method in brief: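 Phosphorylation of a biotinylated tyrosine-kinase peptide (800 nM) by AXL (5 nM) or TYRO3/MER (1 nM) is measured at 700 µM ATP after 2 h at room temperature, following 1 h enzyme–compound preincubation. Signal is the time-resolved FRET ratio, converted to percent activity.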
(In TR-FRET formats the signal depends on donor and acceptor labels being close together.)

Regarding `CC(C)(O)c1cccnc1-c1ccc(-c2n[nH]c3ncc(-c4ccc5c(c4)CC[C@@H](N4C6COCC4C6)CC5)cc23)cc1` [Example 10, 2-[2-(4-{5-[(7S)-7-{3-Oxa-6-azabicyclo[3.1.1]heptan-6-yl}-6,7,8,9-tetrahydro-5H-benzo[7]annulen-2-yl]-1H-pyrazolo[3,4-b]pyridin-3-yl}phenyl)pyridin-3-yl]propan-2-ol], the IC50 in experiment [1] and in experiment [2] was under 100 nM throughout.
With `CN(C)C(=O)c1ccccc1-c1ccc(-c2n[nH]c3ncc(-c4ccc5c(c4)CC[C@@H](N4C6COCC4C6)CC5)cc23)cc1` [Example 12, N,N-Dimethyl-4′-{5-[(7S)-7-{3-oxa-6-azabicyclo[3.1.1]heptan-6-yl}-6,7,8,9-tetrahydro-5H-benzo[7]annulen-2-yl]-2H-pyrazolo[3,4-b]pyridin-3-yl}-[1,1′-biphenyl]-2-carboxamide], the IC50 in experiment [1] and in experiment [2] was under 100 nM each time.
For `Cn1nncc1-c1ccc(-c2n[nH]c3ncc(-c4ccc5c(c4)CC[C@@H](N4C6COCC4C6)CC5)cc23)cc1` [Example 13, 6-[(7S)-2-{3-[4-(1-Methyl-1H-1,2,3-triazol-5-yl)phenyl]-1H-pyrazolo[3,4-b]pyridin-5-yl}-6,7,8,9-tetrahydro-5H-benzo[7]annulen-7-yl]-3-oxa-6-azabicyclo[3.1.1]heptane], the IC50 in experiment [1] and in experiment [2] was under 100 nM throughout.
Consider `CN(C)C(=O)c1cccc(-c2ccc(-c3n[nH]c4ncc(-c5ccc6c(c5)CC[C@@H](N5C7COCC5C7)CC6)cc34)cc2)n1` [Example 94, N,N-Dimethyl-6-(4-{5-[(7S)-7-{3-oxa-6-azabicyclo[3.1.1]heptan-6-yl}-6,7,8,9-tetrahydro-5H-benzo[7]annulen-2-yl]-2H-pyrazolo[3,4-b]pyridin-3-yl}phenyl)pyridine-2-carboxamide], for which the IC50 in experiment [1] and in experiment [2] was under 100 nM in each case.
On to `CC(C)(O)c1cccnc1-c1ccc(-c2c[nH]c3ncc(-c4ccc5c(c4)CC[C@@H](N4C6COCC4C6)CC5)cc23)cc1` [Example 95, 2-[2-(4-{5-[(7S)-7-{3-Oxa-6-azabicyclo[3.1.1]heptan-6-yl}-6,7,8,9-tetrahydro-5H-benzo[7]annulen-2-yl]-1H-pyrrolo[2,3-b]pyridin-3-yl}phenyl)pyridin-3-yl]propan-2-ol], for which the IC50 in experiment [1] and in experiment [2] was under 100 nM each time.
Compound `Cc1cccnc1-c1ccc(-c2n[nH]c3ncc(-c4ccc5c(c4)CC[C@@H](N4C[C@@H]6C[C@H]4CO6)CC5)cc23)cc1` [Example 130, (1S,4S)-5-[(7S)-2-{3-[4-(3-Methylpyridin-2-yl)phenyl]-1H-pyrazolo[3,4-b]pyridin-5-yl}-6,7,8,9-tetrahydro-5H-benzo[7]annulen-7-yl]-2-oxa-5-azabicyclo[2.2.1]heptane] had an IC50 in experiment [2] of under 100 nM.
The same measure, in the same setting: in the case of `CO[C@H]1C[C@@H](N[C@H]2CCc3ccc(-c4cnc5[nH]nc(-c6ccc(-c7ncccc7C)cc6)c5c4)cc3CC2)C1` [Example 131, (7S)-2-{3-[4-(3-Methylpyridin-2-yl)phenyl]-1H-pyrazolo[3,4-b]pyridin-5-yl}-N-[cis-3-methoxycyclobutyl]-6,7,8,9-tetrahydro-5H-benzo[7]annulen-7-amine] it was under 100 nM.
On the same count and under the same terms, in the case of `COC[C@H]1CCN([C@H]2CCc3ccc(-c4cnc5[nH]nc(-c6ccc(-c7ncccc7C)cc6)c5c4)cc3CC2)C1` [Example 132, 2-(4-{5-[(7S)-7-[(3S)-3-(Methoxymethyl)pyrrolidin-1-yl]-6,7,8,9-tetrahydro-5H-benzo[7]annulen-2-yl]-1H-pyrazolo[3,4-b]pyridin-3-yl}phenyl)-3-methylpyridine] it was under 100 nM; in that of `O=C1CCCN1c1cccnc1-c1ccc(-c2n[nH]c3ncc(-c4ccc5c(c4)CC[C@@H](N4C6COCC4C6)CC5)cc23)cc1` [Example 177, 1-[2-(4-{5-[(7S)-7-{3-Oxa-6-azabicyclo[3.1.1]heptan-6-yl}-6,7,8,9-tetrahydro-5H-benzo[7]annulen-2-yl]-1H-pyrazolo[3,4-b]pyridin-3-yl}phenyl)pyridin-3-yl]pyrrolidin-2-one], under 100 nM.
The same measure, in the same setting: as for `c1cnc(-c2ccc(-c3c[nH]c4ncc(-c5ccc6c(c5)CC[C@@H](N5C7COCC5C7)CC6)cc34)cc2)c(C2CC2)c1` [Example 178, 6-[(7S)-2-{3-[4-(3-Cyclopropylpyridin-2-yl)phenyl]-1H-pyrrolo[2,3-b]pyridin-5-yl}-6,7,8,9-tetrahydro-5H-benzo[7]annulen-7-yl]-3-oxa-6-azabicyclo[3.1.1]heptane], the figure is under 100 nM; as for `c1cnc(-c2ccc(-c3n[nH]c4ncc(-c5ccc6c(c5)CC[C@@H](N5C7COCC5C7)CC6)cc34)cc2)c(C2CC2)c1` [Example 179, 6-[(7S)-2-{3-[4-(3-Cyclopropylpyridin-2-yl)phenyl]-1H-pyrazolo[3,4-b]pyridin-5-yl}-6,7,8,9-tetrahydro-5H-benzo[7]annulen-7-yl]-3-oxa-6-azabicyclo[3.1.1]heptane], under 100 nM.
As for `COCCOc1cccnc1-c1ccc(-c2n[nH]c3ncc(-c4ccc5c(c4)CC[C@@H](N4C6COCC4C6)CC5)cc23)cc1` [Example 180, 6-[(7S)-2-(3-{4-[3-(2-Methoxyethoxy)pyridin-2-yl]phenyl}-1H-pyrazolo[3,4-b]pyridin-5-yl)-6,7,8,9-tetrahydro-5H-benzo[7]annulen-7-yl]-3-oxa-6-azabicyclo[3.1.1]heptane], the IC50 in experiment [2] was under 100 nM.
Same read-out and setting: in the case of `CCOc1cccnc1-c1ccc(-c2n[nH]c3ncc(-c4ccc5c(c4)CC[C@@H](N4C6COCC4C6)CC5)cc23)cc1` [Example 181, 6-[(7S)-2-{3-[4-(3-Ethoxypyridin-2-yl)phenyl]-1H-pyrazolo[3,4-b]pyridin-5-yl}-6,7,8,9-tetrahydro-5H-benzo[7]annulen-7-yl]-3-oxa-6-azabicyclo[3.1.1]heptane] it was under 100 nM; in that of `CCc1cccnc1-c1ccc(-c2n[nH]c3ncc(-c4ccc5c(c4)CC[C@@H](N4C6COCC4C6)CC5)cc23)cc1` [Example 182, 6-[(7S)-2-{3-[4-(3-Ethylpyridin-2-yl)phenyl]-1H-pyrazolo[3,4-b]pyridin-5-yl}-6,7,8,9-tetrahydro-5H-benzo[7]annulen-7-yl]-3-oxa-6-azabicyclo[3.1.1]heptane], under 100 nM.
On the same count and under the same terms, as for `CCc1cccnc1-c1ccc(-c2c[nH]c3ncc(-c4ccc5c(c4)CC[C@@H](N4C6COCC4C6)CC5)cc23)cc1` [Example 183, 6-[(7S)-2-{3-[4-(3-Ethylpyridin-2-yl)phenyl]-1H-pyrrolo[2,3-b]pyridin-5-yl}-6,7,8,9-tetrahydro-5H-benzo[7]annulen-7-yl]-3-oxa-6-azabicyclo[3.1.1]heptane], the figure is under 100 nM.
Same read-out and setting: in the case of `Cc1cccnc1-c1ccc(-c2c[nH]c3ncc(-c4ccc5c(c4)CC[C@@H](N[C@H]4CCCOC4)CC5)cc23)cc1` [Example 186, (3S)—N-[(7S)-2-{3-[4-(3-Methylpyridin-2-yl)phenyl]-1H-pyrrolo[2,3-b]pyridin-5-yl}-6,7,8,9-tetrahydro-5H-benzo[7]annulen-7-yl]oxan-3-amine] it was under 100 nM; in that of `Cc1cccnc1-c1ccc(-c2c[nH]c3ncc(-c4ccc5c(c4)CC[C@@H](N4C[C@@H]6C[C@H]4CO6)CC5)cc23)cc1` [Example 187, (4S)-5-[(7S)-2-{3-[4-(3-Methylpyridin-2-yl)phenyl]-1H-pyrrolo[2,3-b]pyridin-5-yl}-6,7,8,9-tetrahydro-5H-benzo[7]annulen-7-yl]-2-oxa-5-azabicyclo[2.2.1]heptane], under 100 nM.

Values taken from patent US12195482B1 (Arcus Biosciences, Inc., priority 2022, dated 2025).
